Test results from patent publication US20250082781A1, “METHODS OF LOWERING BLOOD GLUCOSE AND TREATING TYPE 2 DIABETES BY ACTIVATION OF PDE4D3” (Salk Institute for Biological Studies, priority 2021, published 2025).

Columns and labels:
[1] = tested on: mouse SVF-derived adipocytes; assay: In vitro lipolysis assay (FFA release), mouse SVF-derived adipocytes; type: cell-based
Description: Isolation of adipose stromal fraction (SVF) was performed as published previously with slight modifications (Bapat et al., 2015). Inguinal adipose (iWAT) tissues were used for isolation of SVF due their ability to differentiate to mature adipocytes. Briefly, adipose tissues were dissected, washed in cold PBS and cut into small pieces in digestion buffer (100 mM HEPES, 120 mM NaCl, 50 mM KCl, 1 mM CaCl2), 1.5% fatty acids free BSA, 1 mg/ml collagenase I). Samples were dissociated in 37° C. water bath with shaking for 30-60 min with occasional monitoring to prevent over digestion. Tissue debris were filtered by 100 μm cell strainer and SVF was collected by centrifugation at 500 g for 5 minutes. Cell pellet was washed once by PBS and filtered with 40 μm cell strainer. Red blood cells were lysed with Red blood cell lysis buffer (BioLegend) according to manufacturer's instructions. The remaining cells were re-suspended and cultured in DMEM/F12 with 20% FBS (GemCell, 100-500) at 37° C., 5% CO2.
Differentiation of pre-adipocytes were based on previously published methods (Bunnell et al., 2008). Briefly, 3T3-L1 pre-adipocytes were grown to full confluence in DMEM, 10% FBS (GemCell, 100-500), 10 mM HEPES and antibiotic-antimycotic (full growth media). 2 days later, differentiation was induced by replacing the media with 1 μM dexamethasone, 1 μM rosiglitazone, 500 μM IBMX and 5 μg/ml insulin in full growth media 2 days later after reaching full confluence. Two days later media was replaced by differentiation induction media with 1 μM rosiglitazone and 5 μg/ml insulin for 4 days with media change after 2 days. Cells were kept in maintenance medium (full growth media with 5 μg/ml insulin) for 4 more days for full differentiation. […]
For in vitro lipolysis assay, cells were washed with PBS and media were changed to full growth media 1 day before experiment. […] FFAs were measured in the media using a commercial kit (Wako-NEFAHR2) and normalized to protein concentration. […] FFAs were measured and normalized by the explant weights.

PDE4D = assay: Western blot of PDE4D phosphorylation in gWAT after injection; type: in vivo, mouse; conditions: 30 minutes after FGF1 injection 0.5 mg/kg
Description: Tissues were lysed in cold lysis buffer (50 mM Tris, pH 7.5, 150 mM NaCl, 1% NP40, 0.5% NaDoc, 0.1% SDS, 5% glycerol, 1 mM EDTA, protease and phosphatase inhibitors (complete and PhosSTOP (Roche)) by homogenization by bead-beater for 30 s. Samples were cleared for 10 min at 18,000 g at 4° C. and the middle clear phase was transferred to new tubes. A second 30 min centrifugation was performed and the middle clear phase was transferred to new tubes. Five ul protein extract was used for BCA assay to determine protein concentration. Samples were boiled in Laemmli buffer. SDS-PAGE and blotting were performed using gradient gels and Trans-Blot Turbo Transfer System (Bio-Rad). Antibodies used were PDE4D (12918-1-AP, Proteintech), pHSL-660 (4126S, Cell signaling), HSL (4107S, Cell Signaling), tubulin (CP06, Millipore Sigma), and GFP (A01388, GenScript). PDE4D3-pS44 phospho-specific antibody was generated using PDE4D3-S44 FRRHpSWISFDVDNGTSAGR peptide (SEQ ID NO: 20) (Mackenzie et al., 2002) by Pocono Rabbit Farm, using 70-day rabbit antibody production protocol and purified via affinity purification. Primary antibodies were incubated for 2 h at room temperature (RT) or overnight (ON) at 4° C. Blots were developed using SuperSignal West Pico PLUS Chemiluminescent Substrate (ThermoFisher Scientific) and imaged with BioRad GelDoc system.

FGF1: Recombinant fibroblast growth factor 1 protein, dissolved in PBS, injected subcutaneously
anti-lipolytic activity of FGF1 with selective inhibitors of PDE4 ([1]; FGF1 100 ng/ml with roflumilast 2 μM): blocked by selective inhibitors of PDE4 | basal and isoproterenol-induced lipolysis ([1]; FGF1 100 ng/ml, 10 min before ISO 1 nM): acutely suppressed basal and isoproterenol-induced lipolysis | isoproterenol-induced lipolysis in adipocytes derived from PDE4D KO SVF ([1]; FGF1 100 ng/ml, ISO 1 nM): insensitive to FGF1 treatment | PDE4D phosphorylation in gWAT (PDE4D): increase in PDE4D phosphorylation
